Data as given in patent US20140155415A1, “BENZ[…] BENZODIOXINE COMPOUNDS THAT INTERACT WITH G[…] FOR THE TREATMENT OF DIABETES” (priority 2011, published 2014).

How the values were obtained:
[1] = target: T1, GK-GKRP (interaction between glucokinase and glucokinase regulatory protein) (Homo sapiens, UniProt Q14397); experiment: GK-GKRP Binding Assay (Binding), AlphaScreen; conditions: avi-tagged GKRP, GK-fluorescein, AlphaScreen beads, 1 μM sorbitol-6-phosphate; read-out: GK-GKRP IC50 (Binding)
T1 construct: made in house; host or cells: GKRP: baculovirus system
T1 sequence (Q14397 1-625): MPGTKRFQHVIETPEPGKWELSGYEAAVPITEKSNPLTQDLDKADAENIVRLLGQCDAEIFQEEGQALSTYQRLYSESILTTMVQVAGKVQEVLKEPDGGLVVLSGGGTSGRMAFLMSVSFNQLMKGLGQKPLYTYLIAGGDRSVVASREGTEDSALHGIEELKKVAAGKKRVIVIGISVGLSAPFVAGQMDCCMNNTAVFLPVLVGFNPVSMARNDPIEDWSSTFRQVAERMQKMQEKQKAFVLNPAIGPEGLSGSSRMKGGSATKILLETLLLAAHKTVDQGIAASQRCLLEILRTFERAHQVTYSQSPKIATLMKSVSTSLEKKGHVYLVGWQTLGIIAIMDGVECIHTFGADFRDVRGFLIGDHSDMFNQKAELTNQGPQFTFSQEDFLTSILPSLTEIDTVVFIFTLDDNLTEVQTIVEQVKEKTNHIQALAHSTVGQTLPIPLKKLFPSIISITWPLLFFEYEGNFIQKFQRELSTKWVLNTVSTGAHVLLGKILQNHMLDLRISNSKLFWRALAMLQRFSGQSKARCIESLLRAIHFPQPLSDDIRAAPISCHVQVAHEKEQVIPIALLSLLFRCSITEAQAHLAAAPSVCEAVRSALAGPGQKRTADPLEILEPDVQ
Method in brief: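 Biotinylated, C-terminally avi-tagged human GKRP was preincubated 20 min at room temperature with compound, then fluorescein-labelled human hepatic GK was added (6 nM in the added buffer). The mix was incubated 2 h at room temperature in the dark before AlphaScreen reading. Buffer was 20 mM Tris pH 7.5, 0.05% BSA, 1 mM DTT, 1 μM sorbitol-6-phosphate.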

[2] = target: T2, GK-GKRP (glucokinase / glucokinase regulatory protein) (Homo sapiens, UniProt Q14397); experiment: GKRP LC MS/MS Biochemical Assay (LCMS/MS); conditions: formation of 13C-glucose-6-phosphate from 13C-glucose by LC MS/MS, human His-hepatic GK, fructose-6-phosphate
T2 sequence (Q14397 1-625): T1 sequence (Q14397 1-625)
Method in brief: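 Human His-tagged hepatic GK (30 nM working stock, 5×) with GKRP in 50 mM Tris pH 7.5, 4 mM MgCl2, 6% DMSO; compound preincubated 30 min, then GK added for 30 min at room temperature. Acetonitrile-stopped; 13C-glucose-6-phosphate formed from 13C-glucose quantified by LC MS/MS.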

Structure (SMILES) | IC50 [1] | EC50 [2]
Cc1c(C(NS(=O)(=O)c2ccc3c(c2)OCCCO3)c2ccccc2)oc2ccccc12 (racemic) [Example 44, N-((3-methyl-1-benzofuran-2-yl)(phenyl)methyl)-3,4-dihydro-2H-1,5-benzodioxepine-7-sulfonamide] | 1 µM | 0.48 µM
O=S(=O)(NC(c1cc2ccccc2o1)c1ccccc1Cl)c1ccc2c(c1)OCCCO2 (racemic) [Example 20, N-(1-benzofuran-2-yl(2-chlorophenyl)methyl)-3,4-dihydro-2H-1,5-benzodioxepine-7-sulfonamide] | 0.22 µM | 0.07 µM
Cc1cccnc1[C@@H](NS(=O)(=O)c1ccc2c(c1)OCCCO2)c1cc2ccccc2o1 (single isomer, unassigned) [Example 26 Peak #2] | 0.12 µM | 0.085 µM
CSc1ccccc1C(NS(=O)(=O)c1ccc2c(c1)OCCCO2)c1cc2ccncc2s1 (racemic) [Example 64, N-((2-(methylsulfanyl)phenyl)(thieno[2,3-c]pyridin-2-yl)methyl)-3,4-dihydro-2H-1,5-benzodioxepine-7-sulfonamide] | 0.004 µM | 0.02 µM
O=S(=O)(NC(c1ccccc1)c1nc2ccccc2s1)c1ccc2c(c1)OCCCO2 (racemic) [Example 59, N-(1,3-benzothiazol-2-yl(phenyl)methyl)-3,4-dihydro-2H-1,5-benzodioxepine-7-sulfonamide] | 0.63 µM | 0.3 µM
CSc1ccccc1[C@@H](NS(=O)(=O)c1ccc2c(c1)OCCCO2)c1cc2ccncc2s1 (single isomer, unassigned) [Example 64 Peak #2] | 0.001 µM | 0.01 µM
O=S(=O)(NC(c1cccc(O)c1)c1cc2ccccc2o1)c1ccc2c(c1)OCCCO2 (racemic) [Example 13, N-(1-benzofuran-2-yl(3-hydroxyphenyl)methyl)-3,4-dihydro-2H-1,5-benzodioxepine-7-sulfonamide] | 2.5 µM | 1.8 µM
CSc1ccccc1[C@H](NS(=O)(=O)c1ccc2c(c1)OCCCO2)c1cc2ccccc2s1 (single isomer, unassigned) [Example 41 Peak #1] | 0.14 µM | 0.04 µM
COc1cccnc1C(NS(=O)(=O)c1ccc2c(c1)OCCCO2)c1cc2ccccc2o1 (racemic) [Example 30, N-(1-benzofuran-2-yl(3-methoxy-2-pyridinyl)methyl)-3,4-dihydro-2H-1,5-benzodioxepine-7-sulfonamide] | 0.31 µM | 0.15 µM
CSc1ccccc1[C@@H](NS(=O)(=O)c1ccc2c(c1)OCCCO2)c1nc2cccnc2s1 (single isomer, unassigned) [Example 65 Peak #2] | 0.007 µM | 0.015 µM
COc1cnccc1C(NS(=O)(=O)c1ccc2c(c1)OCCCO2)c1cc2cccnc2s1 (racemic) [Example 50, N-((3-methoxy-4-pyridinyl)(thieno[2,3-b]pyridin-2-yl)methyl)-3,4-dihydro-2H-1,5-benzodioxepine-7-sulfonamide] | 0.41 µM | 0.48 µM
CSc1ccccc1[C@@H](NS(=O)(=O)c1ccc2c(c1)OCCCO2)c1cc2ccccc2o1 (single isomer, unassigned) [Example 19 Peak #2] | 0.046 µM | 0.023 µM
COc1ccccc1[C@@H](NS(=O)(=O)c1ccc2c(c1)OCCCO2)c1cc2ccccc2s1 (single isomer, unassigned) [Example 40 Peak #2] | 0.028 µM | 0.026 µM
O=S(=O)(N[C@H](c1ccccc1)c1cc2ccccc2s1)c1ccc2c(c1)OCCCO2 (single isomer, unassigned) [Example 57 Peak #2] | 1.9 µM | 0.087 µM
C#Cc1ccccc1C(NS(=O)(=O)c1ccc2c(c1)OCCCO2)c1cc2ccccc2s1 (racemic) [Example 39, N-(1-benzothiophen-2-yl(2-ethynylphenyl)methyl)-3,4-dihydro-2H-1,5-benzodioxepine-7-sulfonamide] | 0.017 µM | 0.037 µM
Cc1ccccc1[C@@H](NS(=O)(=O)c1ccc2c(c1)OCCCO2)c1cc2ccccc2s1 (single isomer, unassigned) [Example 36 Peak #2] | 0.24 µM | 0.062 µM
Cc1ccccc1[C@H](NS(=O)(=O)c1ccc2c(c1)OCCCO2)c1cc2ccccc2s1 (single isomer, unassigned) [Example 36 Peak #1] | 4 µM | > 20 µM
O=S(=O)(N[C@@H](c1nc2cccnc2s1)c1ccccc1Cl)c1ccc2c(c1)OCCCO2 (single isomer, unassigned) [Example 68 Peak #2] | 0.02 µM | 0.029 µM
C[C@@](O)(c1ccnc(-c2cccc3cc([C@@H](NS(=O)(=O)c4ccc5c(c4)OCCCO5)c4ccccc4)sc23)c1)C(F)(F)F (single isomer, unassigned) [Example 70 Peak #3] | 0.33 µM | 0.17 µM
Cc1ccsc1C(NS(=O)(=O)c1ccc2c(c1)OCCCO2)c1cc2ccccc2o1 (racemic) [Example 33, N-(1-benzofuran-2-yl(3-methyl-2-thiophenyl)methyl)-3,4-dihydro-2H-1,5-benzodioxepine-7-sulfonamide] | 1.4 µM | 1.2 µM
O=S(=O)(N[C@@H](c1cc2ccccc2o1)c1ccccc1Br)c1ccc2c(c1)OCCCO2 (single isomer, unassigned) [Example 22 Peak #2] | 0.083 µM | 0.026 µM
CSc1ccccc1[C@H](NS(=O)(=O)c1ccc2c(c1)OCCCO2)c1cc2ccccc2o1 (single isomer, unassigned) [Example 19 Peak #1] | 0.97 µM | 0.29 µM
O=S(=O)(NC(c1ccccc1)c1cc2cnccc2s1)c1ccc2c(c1)OCCCO2 (racemic) [Example 62, N-(phenyl(thieno[3,2-c]pyridin-2-yl)methyl)-3,4-dihydro-2H-1,5-benzodioxepine-7-sulfonamide] | 11 µM | 4.6 µM
CSc1ccccc1[C@@H](NS(=O)(=O)c1ccc2c(c1)OCCCO2)c1cc2ccccc2s1 (single isomer, unassigned) [Example 41 Peak #2] | 0.008 µM | 0.013 µM
COc1ccccc1C(NS(=O)(=O)c1ccc2c(c1)OCCCO2)c1nc2cccnc2s1 (racemic) [Example 67, N-((2-methoxyphenyl)([1,3]thiazolo[5,4-b]pyridin-2-yl)methyl)-3,4-dihydro-2H-1,5-benzodioxepine-7-sulfonamide] | 0.058 µM | 0.095 µM
CSc1ccccc1C(NS(=O)(=O)c1ccc2c(c1)OCCCO2)c1cc2ccccc2s1 (racemic) [Example 41, N-(1-benzothiophen-2-yl(2-(methylsulfanyl)phenyl)methyl)-3,4-dihydro-2H-1,5-benzodioxepine-7-sulfonamide] | 0.057 µM | 0.027 µM
COc1ccccc1C(NS(=O)(=O)c1ccc2c(c1)OCCCO2)c1cc2ccccc2s1 (racemic) [Example 40, N-(1-benzothiophen-2-yl(2-methoxyphenyl)methyl)-3,4-dihydro-2H-1,5-benzodioxepine-7-sulfonamide] | 0.11 µM | 0.046 µM
O=S(=O)(NC(c1cc2ccccc2o1)c1ccccc1F)c1ccc2c(c1)OCCCO2 (racemic) [Example 23, N-(1-benzofuran-2-yl(2-fluorophenyl)methyl)-3,4-dihydro-2H-1,5-benzodioxepine-7-sulfonamide] | 0.49 µM | 0.45 µM
